The test system of data set [1] is cardiac immune cells. Description: Flow cytometry cardiac immune phenotyping post-MI. The class given is in vivo, mice. The settings on record: 24 hours post-MI, vs control. Here is the method: Flow Cytometry and Cardiac Immune Phenotyping. Hearts and spleens isolated from control and MCB-613 treated mice 24 hours post-MI or post-sham surgery were digested in digestion buffer: 500 μL of DNAse I (10 mg/ml), 500 μl Collagenase II (50 mg/ml) into 4 ml (enough for approx. 12 spleens @ 1x) RPMI 1640. Cells were placed on a GentleMacs dissociator and run on “IMPC_step2” twice and incubated at 25° C. for 15 minutes. The “IMPC_step2” program was repeated and the samples were incubated at 25° C. an additional 15 minutes followed by another round of the “IMPC_step2” program. Then, 400 μL of 4° C. Stopping Buffer (1x PBS, 0.1M EDTA) was added to each sample and centrifuged at ˜100 g for one second to collect liquid at the bottom of tube. Samples were filtered through mesh filter caps into 50 mL conical tubes. The tubes were then washed with 1 mL FACs buffer which was also then passed through the filter. Heart preps were more viscous and were washed with 20 mL cold filtered saline. Samples were centrifuged at 500 g for 6 minutes. Supernatant was discarded and the pellet suspended in 1 mL 4° C. FACS buffer. Following red blood cell (RBC) lysis and blocking, single cell suspensions were stained with an immune cell panel and quantified using an LSR II flow cytometer. Then, 500,000 live events were counted for spleen controls and the entire tube of heart cells was recorded and analyzed.
In general terms: Flow cytometry measures light scatter and fluorescence of single cells or particles in a stream.

The subject of data set [2] is cardiac fibroblasts. Nature of the data set: Tube formation assay. The class given is cell-based, mice. The settings on record: adult cardiac fibroblasts, 6 μM, 24 hours. How it is done:
Tube formation assay. Cardiac fibroblasts were treated with either DMSO or 6 μM MCB-613. Twenty four hours post treatment, drug was washed off by rinsing the cells twice with PBS. The cells were then conditioned with endothelial cell growth media for 24 hours. Post conditioning, cells were plated on growth factor reduced matrigel (10 mg/ml) to allow for tube formation overnight. The next day tubes were stained with Calcein AM and imaged using the Cytation imaging system.

Data set [3] can be described thus: Toxicity profile in vitro and in vivo.
The subject of data set [4] is mice after myocardial infarction. Nature of the data set: Myocardial infarction model, permanent LAD ligation (echocardiography, histology, immunostaining, PET, EM). The class given is in vivo, ICR (CD1) mice. The settings on record: repeat injections three days at weeks 8 and 16.
For data set [5] the test system is unchanged. Description: Progressive maximal exercise test, indirect calorimetry (VO2, VCO2). In kind it is in vivo. The settings on record: three weeks post-MI. Here is the method:
RER, VO2 and VCO2 measurements. Respiratory exchange ratio (RER), oxygen consumption (VO^2) and carbon dioxide expiration (VCO2) were measured by indirect calorimetry using a progressive maximal exercise test until mice reached exhaustion.
RER, VO2 and VCO2 measurements. RER, VO2 and VCO2 were measured by indirect calorimetry using a progressive maximal exercise test until mice reached exhaustion.

SMILES strings stand for the structures.

In the case of `CCC1C/C(=C\c2cccnc2)C(=O)/C(=C/c2cccnc2)C1` (centres unmarked) [MCB-613], the “composition of cardiac immune cells (FACS)” value in data set [1] was “significant decrease in B cells, a trend for decreased monocytes and no change in the fraction of granulocytes”. The tube formation result in data set [2] was “stimulated tube formation”. The toxicity profile entry in data set [3] is “low toxicity profile in vitro and in vivo”. Also, the “effect of repeat injections on ejection fraction” value in data set [4] is “did not alter ejection fractions”. Moreover, the “VCO2 and VO2 during exercise” value in data set [5] was “VCO2 and VO2 are elevated”.

(Values after patent publication US12338229B2, “Small molecule stimulators of steroid receptor coactivator-3 and methods of their use as cardioprotective and/or vascular regenerative agents” (BAYLOR COLLEGE OF MEDICINE, priority 2018, dated 2025).)
